Laboratory results reported in ChEMBL document CHEMBL5233249, “Recent advancements in the development of heterocyclic anti-inflammatory agents” (Eur J Med Chem, 2020).
One block for each molecule: values may come before it.

What was measured:
[1] = molecular target: T1, Polyunsaturated fatty acid 5-lipoxygenase (Homo sapiens, UniProt P09917); assay: Inhibition of 5-LOX (unknown origin) after 5 mins by colorimetric method
T1 sequence (P09917 whole entry): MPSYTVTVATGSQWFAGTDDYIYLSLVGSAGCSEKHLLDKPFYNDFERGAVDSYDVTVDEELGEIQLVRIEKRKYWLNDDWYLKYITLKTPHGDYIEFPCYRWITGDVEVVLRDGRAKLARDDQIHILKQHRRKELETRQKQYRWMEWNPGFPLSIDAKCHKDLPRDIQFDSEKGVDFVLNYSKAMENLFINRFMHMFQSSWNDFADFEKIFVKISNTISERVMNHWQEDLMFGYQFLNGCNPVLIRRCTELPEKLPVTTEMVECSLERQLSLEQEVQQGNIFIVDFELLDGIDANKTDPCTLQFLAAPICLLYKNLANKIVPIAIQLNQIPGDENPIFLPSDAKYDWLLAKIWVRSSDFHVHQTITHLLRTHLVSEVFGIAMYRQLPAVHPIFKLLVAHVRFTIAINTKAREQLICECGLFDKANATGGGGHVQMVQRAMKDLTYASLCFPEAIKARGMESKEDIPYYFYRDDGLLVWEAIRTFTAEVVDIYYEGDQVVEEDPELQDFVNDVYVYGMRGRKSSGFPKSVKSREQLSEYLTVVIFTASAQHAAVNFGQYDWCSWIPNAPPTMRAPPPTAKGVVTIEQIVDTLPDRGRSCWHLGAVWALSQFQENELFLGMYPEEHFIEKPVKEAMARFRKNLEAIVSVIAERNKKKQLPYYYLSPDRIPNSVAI

[2] = molecular target: T2, Prostaglandin G/H synthase 1 (Ovis aries, UniProt P05979); assay: Inhibition of ovine COX-1 by EIA method
T2 sequence (P05979 whole entry): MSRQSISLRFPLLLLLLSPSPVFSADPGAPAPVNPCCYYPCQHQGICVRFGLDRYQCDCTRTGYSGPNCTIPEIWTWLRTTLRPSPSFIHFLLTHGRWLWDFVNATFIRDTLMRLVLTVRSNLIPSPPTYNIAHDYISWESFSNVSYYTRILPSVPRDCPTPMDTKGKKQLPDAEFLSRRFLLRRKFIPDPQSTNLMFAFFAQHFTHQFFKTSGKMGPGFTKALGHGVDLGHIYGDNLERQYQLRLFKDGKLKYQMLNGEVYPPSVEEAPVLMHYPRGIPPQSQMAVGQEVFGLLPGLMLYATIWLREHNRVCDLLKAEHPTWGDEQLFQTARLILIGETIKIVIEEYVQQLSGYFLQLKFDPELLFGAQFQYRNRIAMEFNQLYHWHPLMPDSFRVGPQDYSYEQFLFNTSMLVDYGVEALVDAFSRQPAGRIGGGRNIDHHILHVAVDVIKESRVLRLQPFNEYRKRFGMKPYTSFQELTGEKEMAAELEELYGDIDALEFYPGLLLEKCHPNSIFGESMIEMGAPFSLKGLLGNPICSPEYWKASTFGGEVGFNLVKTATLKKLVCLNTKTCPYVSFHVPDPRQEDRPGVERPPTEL

[3] = molecular target: T3, Polyunsaturated fatty acid lipoxygenase ALOX15 (Homo sapiens, UniProt P16050); assay: Inhibition of 15-LOX (unknown origin)
T3 sequence (P16050 whole entry): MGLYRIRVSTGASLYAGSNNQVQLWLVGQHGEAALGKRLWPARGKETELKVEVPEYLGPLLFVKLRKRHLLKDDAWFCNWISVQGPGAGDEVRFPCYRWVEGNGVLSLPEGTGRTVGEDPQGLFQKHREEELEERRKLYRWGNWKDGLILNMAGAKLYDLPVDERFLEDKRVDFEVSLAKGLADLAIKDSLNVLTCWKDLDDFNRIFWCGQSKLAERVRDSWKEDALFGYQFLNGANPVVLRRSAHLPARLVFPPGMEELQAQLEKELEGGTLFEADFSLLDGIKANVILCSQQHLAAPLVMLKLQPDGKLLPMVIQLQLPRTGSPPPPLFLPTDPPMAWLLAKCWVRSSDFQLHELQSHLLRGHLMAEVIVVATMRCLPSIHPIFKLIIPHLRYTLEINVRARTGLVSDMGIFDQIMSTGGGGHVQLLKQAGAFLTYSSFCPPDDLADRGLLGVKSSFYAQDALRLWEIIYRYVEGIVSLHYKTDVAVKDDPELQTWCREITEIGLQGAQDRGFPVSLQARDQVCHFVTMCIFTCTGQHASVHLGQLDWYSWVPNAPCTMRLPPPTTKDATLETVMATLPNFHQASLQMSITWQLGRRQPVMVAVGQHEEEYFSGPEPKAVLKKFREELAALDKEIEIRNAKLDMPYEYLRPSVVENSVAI

Rattus norvegicus [4] = assay: Anti-inflammatory activity in Carageenan-induced paw edema Wistar rat model assessed as reduction in paw edema volume relative to control; format: functional; design: scale not given: the % may be the effect or the level left
Rattus norvegicus [5] = assay: Anti-inflammatory activity in Carrageenan-induced paw edema in Wistar albino rat assessed as inhibition of paw edema measured after 3 hr relative to control; format: functional; design: Activity: scale not given: the % may be the effect or the level left
RAW264.7 = assay: Anti-inflammatory activity in mouse RAW264.7 cells assessed as LPS-induced reduction in decreased […] level of IL-1beta measured after 24 hrs; format: functional
[6] = molecular target: T4, Bifunctional epoxide hydrolase 2 (Homo sapiens, UniProt P34913); assay: Inhibition of human recombinant sEH
T4 sequence (P34913 whole entry): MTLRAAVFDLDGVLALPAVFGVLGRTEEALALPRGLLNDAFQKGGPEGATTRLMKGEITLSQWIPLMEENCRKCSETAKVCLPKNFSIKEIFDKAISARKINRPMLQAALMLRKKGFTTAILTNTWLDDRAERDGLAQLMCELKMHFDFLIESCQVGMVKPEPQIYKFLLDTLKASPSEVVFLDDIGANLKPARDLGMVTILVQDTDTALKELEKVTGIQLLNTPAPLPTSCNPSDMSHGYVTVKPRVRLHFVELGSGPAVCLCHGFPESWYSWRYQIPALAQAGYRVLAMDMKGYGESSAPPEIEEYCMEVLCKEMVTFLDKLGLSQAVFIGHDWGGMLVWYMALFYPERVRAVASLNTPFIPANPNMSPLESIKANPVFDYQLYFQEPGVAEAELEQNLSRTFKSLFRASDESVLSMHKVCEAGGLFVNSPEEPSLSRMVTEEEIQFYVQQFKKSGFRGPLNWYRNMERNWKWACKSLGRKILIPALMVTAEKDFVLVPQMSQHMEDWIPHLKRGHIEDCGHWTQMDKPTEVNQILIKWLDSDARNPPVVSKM

Mus musculus [7] = assay: Anti-inflammatory activity against Carrageenan-induced paw edema in mouse model assessed as inhibition of edema at 100 mg/kg measured after 3 hrs relative to control; format: functional; design: scale not given: the % may be the effect or the level left
Rattus norvegicus [8] = assay: Anti-inflammatory activity against Carrageenan-induced paw edema in PO dosed Wistar albino rat assessed as inhibition of edema measured after 1 hr relative to control; format: functional; design: scale not given: the % may be the effect or the level left
Rattus norvegicus [9] = assay: Anti-inflammatory activity against Carrageenan-induced paw edema in PO dosed Wistar albino rat assessed as inhibition of edema measured after 2 hr relative to control; format: functional; design: scale not given: the % may be the effect or the level left
Rattus norvegicus [10] = assay: Anti-inflammatory activity against Carrageenan-induced paw edema in PO dosed Wistar albino rat assessed as inhibition of edema measured after 4 hr relative to control; format: functional; design: scale not given: the % may be the effect or the level left
Rattus norvegicus [11] = assay: Anti-ulcerative activity in aspirin induced Wistar rat ulcer model assessed as inhibition of ulcer index at 20 mg/kg,po; format: functional
Rattus norvegicus [12] = assay: Anti-inflammatory activity in Carrageenan-induced paw edema in PO dosed Swiss albino rat model at 30 mg/kg assessed as inhibition in volume of edema measured after 1 hrs relative to control; format: functional
Rattus norvegicus [13] = assay: Anti-inflammatory activity in Carrageenan-induced paw edema in Wistar albino rat assessed as inhibition of edema measured after 3 hrs relative to control; format: functional
Mus musculus [14] = assay: Anti-inflammatory activity in Carrageenan-induced paw edema in PO dosed mouse at 100 mg/kg assessed as inhibition of edema measured after 3 hr relative to control; format: functional; design: scale not given: the % may be the effect or the level left
Rattus norvegicus [15] = assay: Anti-inflammatory activity in Carageenan-induced foot paw edema in Swiss albino rat assessed as reduction in volume of paw edema measured after 1 hr relative to control; format: functional; design: scale not given: the % may be the effect or the level left
Rattus norvegicus [16] = assay: Anti-inflammatory activity in Carageenan-induced foot paw edema in Swiss albino rat assessed as reduction in volume of paw edema measured after 2 hr relative to control; format: functional; design: scale not given: the % may be the effect or the level left
Rattus norvegicus [17] = assay: Anti-inflammatory activity in Carageenan-induced foot paw edema in Swiss albino rat assessed as reduction in volume of paw edema measured after 4 hr relative to control; format: functional; design: scale not given: the % may be the effect or the level left
Rattus norvegicus [18] = assay: Anti-inflammatory activity in Carageenan-induced foot paw edema in Swiss albino rat assessed as reduction in volume of paw edema measured after 6 hr relative to control; format: functional; design: scale not given: the % may be the effect or the level left
Rattus norvegicus [19] = assay: Anti-inflammatory activity in Carrageenan-induced paw edema in Wistar albino rat assessed as reduction in paw edema measured after 1 hr relative to control; format: functional; design: scale not given: the % may be the effect or the level left
Rattus norvegicus [20] = assay: Anti-inflammatory activity in Carrageenan-induced paw edema in Wistar albino rat assessed as reduction in paw edema measured after 2 hr relative to control; format: functional; design: scale not given: the % may be the effect or the level left
Rattus norvegicus [21] = assay: Anti-inflammatory activity in Carrageenan-induced paw edema in Wistar albino rat assessed as reduction in paw edema measured after 3 hr relative to control; format: functional; design: scale not given: the % may be the effect or the level left
Rattus norvegicus [22] = assay: Anti-inflammatory activity against Carrageenan-induced paw edema in Wistar albino rat ulcerogenic activity assessed as reduction in severity index; format: functional

IC50 [1]: 320 nM
IC50 [2]: 9850 nM
IC50 [3]: 1020 nM
Compound: O=C1c2ccccc2C(=O)N1c1nc2cc([N+](=O)[O-])ccc2n1Cc1ccc(-c2ccccc2)cc1
Activity (Rattus norvegicus [4]): 81.88%

IC50 [2]: 4150 nM
Compound: COc1c2occc2c(OC)c2c(C)c(/C(=N/c3cc(N4CCNCC4)nc(N4CCNCC4)n3)N3CCNCC3)oc12
Activity (Rattus norvegicus [5]): 68%
Activity (RAW264.7): 30 pg/mL

IC50 [6]: 700 nM
Compound: O=C(O)c1ccc(CSc2nc3cc(F)c(-c4ncn[nH]4)cc3[nH]2)cc1
Activity (Mus musculus [7]): 66.3%

Compound: COc1ccc2c(c1)c(CC(=O)O)c(C)n2C(=O)c1ccc(Cl)cc1 [INDOMETHACIN]
Activity (Rattus norvegicus [8]): 40%
Activity (Rattus norvegicus [9]): 28.89%
Activity (Rattus norvegicus [10]): 30.95%
UI (Rattus norvegicus [11]): 20.2
inhibition in vivo at 30 mg/kg (Rattus norvegicus [12]): 71.2%
inhibition (INH) (Rattus norvegicus [13]): 86.7%
Activity (Mus musculus [14]): 47.76%
Activity (Rattus norvegicus [15]): 43.3%
Activity (Rattus norvegicus [16]): 56.8%
Activity (Rattus norvegicus [17]): 74.56%
Activity (Rattus norvegicus [18]): 85.9%
Activity (Rattus norvegicus [4]): 79.41%
Activity (Rattus norvegicus [19]): 33.15%
Activity (Rattus norvegicus [20]): 50.81%
Activity (Rattus norvegicus [21]): 57.79%
Activity (Rattus norvegicus [22]): 1.96 mm
